Measured values reported in PubChem BioAssay (NCI).
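Five compound concentrations were applied to cells in 96-well plates for 48 hours; endpoints were derived by simple linear interpolation of the resulting dose-response curve. GI50 = concentration required for 50% inhibition of growth. At the TGI there is no net growth.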

What was measured:
Test in all cases: NCI anticancer screen, dose series, 48 h
HOP-92 NSCLC = tested on: HOP-92 NSCLC
NCI-H23 lung = tested on: NCI-H23 lung
OVCAR-8 ovarian = tested on: OVCAR-8 ovarian
RXF 393 renal = tested on: RXF 393 renal
SF-295 CNS = tested on: SF-295 CNS
SK-MEL-5 melanoma = tested on: SK-MEL-5 melanoma
SNB-19 CNS = tested on: SNB-19 CNS
NCI/ADR-RES ovarian = tested on: NCI/ADR-RES ovarian
SR leukemia = tested on: SR leukemia

| SMILES | TGI (HOP-92 NSCLC) [µM] | TGI (NCI-H23 lung) [µM] | TGI (OVCAR-8 ovarian) [µM] | TGI (RXF 393 renal) [µM] | TGI (SF-295 CNS) [µM] | TGI (SK-MEL-5 melanoma) [µM] | TGI (SNB-19 CNS) [µM] | GI50 (NCI-H23 lung) [µM] | GI50 (NCI/ADR-RES ovarian) [µM] | TGI (NCI/ADR-RES ovarian) [µM] | GI50 (OVCAR-8 ovarian) [µM] | GI50 (RXF 393 renal) [µM] | GI50 (SF-295 CNS) [µM] | GI50 (SK-MEL-5 melanoma) [µM] | GI50 (SNB-19 CNS) [µM] | GI50 (SR leukemia) [µM] | TGI (SR leukemia) [µM] | GI50 (HOP-92 NSCLC) [µM] |
| --- | --- | --- | --- | --- | --- | --- | --- | --- | --- | --- | --- | --- | --- | --- | --- | --- | --- | --- |
| C/C(O)=C(\N=O)C(=O)Nc1ccc(Cl)cc1Cl | > 100 | > 100 | > 100 | > 100 | > 100 | > 100 | > 100 | – | – | – | – | – | – | – | – | – | – | – |
| CC/C=C\C[C@H](F)C/C=C1/C(=O)C=C[C@@H]1C/C=C\CCCC(=O)O | – | 20.4 | 5.71 | 10.2 | 17.2 | 9.18 | 25.4 | 7.36 | 6.78 | > 32.5 | 1.21 | 5.19 | 7.54 | 4.86 | 7.31 | 1.04 | 7.49 | – |
| Cc1cc2c(cc1Cl)SC1=NN(C)S(=O)N1S2(=O)=O (stereo not drawn) | 87 | > 100 | > 100 | – | > 100 | > 100 | > 100 | > 100 | > 100 | > 100 | > 100 | – | > 100 | > 100 | > 100 | > 100 | > 100 | 25.5 |
| N#C/C(=C\c1ccc2ccccc2c1)c1ccccc1 | > 100 | > 100 | 96.7 | 65 | 50.4 | 66.5 | – | – | – | – | – | – | – | – | – | – | > 100 | – |
| COC1(OC)CC2OC1C1N=NN(C(=O)OC(C)(C)C)C21 (stereo not drawn) | > 100 | > 100 | – | > 100 | > 100 | > 100 | – | – | – | – | – | – | – | – | – | – | – | – |
| O=C1CCC(N2C(=O)c3ccccc3C2=O)C(=O)N1CO (stereo not drawn) | > 100 | 94.6 | > 100 | > 100 | > 100 | – | > 100 | 39.6 | > 100 | > 100 | > 100 | 43 | > 100 | – | > 100 | – | – | 25 |
| CC(C)(C)c1cc(CCC(=O)Nc2ccc(Cl)cc2)nc(NC#N)n1 | > 100 | > 100 | > 100 | – | > 100 | – | > 100 | – | – | – | – | – | – | – | – | – | – | – |
| Cc1ccc(-c2nc3nc(-c4ccccc4)nc(N4CCCNCC4)c3o2)cc1 | 3.01 | 3.8 | 4.1 | 3.32 | 3.33 | – | 3.11 | 1.89 | 2.17 | 4.71 | 2.06 | 1.69 | 1.77 | – | 1.63 | 0.222 | 0.554 | 1.44 |
| COc1ccc(NC(=O)CC(=O)N/N=C/c2ccc(N(CCC#N)S(C)(=O)=O)cc2)cc1 | – | > 100 | > 100 | > 100 | > 100 | > 100 | – | – | – | – | – | – | – | – | – | – | > 100 | – |
| CCCC(=O)OCC1OC(n2cnc3c(=S)nc[nH]c32)C(OC(=O)CCC)C1OC(=O)CCC (stereo not drawn) | – | > 100 | > 100 | > 100 | > 100 | 62.9 | > 100 | 5.09 | 8.15 | > 100 | 4.2 | 26 | 3.53 | 5.24 | 46.4 | 2.02 | 40.2 | – |
